In one series the test system is AMPA/kainate receptors. Description: Inhibition of synaptic field potentials (population spikes) in rat hippocampal slices. It is filed as cell-based. Particulars: population spikes in CA1, after 30 min. perfusion. On the procedure:
Synaptic potentials in the CA1 area of hippocampus evoked by stimulation of the Schaffer collaterals are mediated by AMPA/kainate receptors. […] Lett. 92, 64 (1988)].
The inhibition of population spikes in CA1 was studied in rat hippocampal slices after 30 min. perfusion application of the test compounds.

Series [1] concerns male CFLP mice. Description: Anticonvulsive effect in mice, pentetrazole. It is filed as in vivo. Particulars: Mus musculus, po, read-out: ED50 p.o., Pentetrazole. Here is the method: (§1) The anticonvulsive effect of the compounds of the formula (I) was measured by using the electroshock test [J. Pharmacol. Exp. Ther. 106, 319 (1952)], furthermore by using various chemical agents such as pentetrazole [J. Pharmacol. Exp. Ther. 108, 168 (1953)], strychnine [J. Pharmacol. Exp. Ther. 129, 75 (1960)], bemegride, nicotine and 4-aminopyridine. The test compounds were orally administered in 3 doses, to 10 male CFLP mice per dose.

Series [2] is described as follows: AMPA induced spreading depression in isolated chicken retina. The format is cell-based. Particulars: AMPA (5 μM). Here is the method:
(§2) Anti-kainate and -AMPA effects were investigated in the in vitro retinal spreading depression model [Brain Res. 607, 189 (1993)]. AMPA/kainate antagonists prolong the latency of the development of spreading depression evoked. by kainate (5 μM), or AMPA (5 μM). In some cases the effect on spreading depression evoked by 100 μM NMDA was also studied to clarify the selectivity.

Series [3] relates to male CFLP mice. Description: Anticonvulsive effect in mice, electroshock test. It is filed as in vivo. Conditions: Mus musculus, po, read-out: ED50 p.o., ES (electroshock). Here is the method:
as §1

Series [4] in a line: Kainate induced spreading depression in isolated chicken retina. Particulars: kainate (5 μM). The format is cell-based. On the procedure:
as §2

Series [5] concerns mice. Description: Rotarod test in mice. The format is in vivo. Particulars: Mus musculus, ip, read-out: ED50 i.p., rotarod test. From the text: The rotarod test was used to measure muscular tone and motor co-ordination [J. Am. Pharm. Assoc. 46, 208 (1957)].
On the technique in general: Falling from the rotarod earlier than controls is read as motor impairment.

The nature of a further series: Acute toxicity in mice. Conditions: mouse, in vivo. On the procedure:
The cause of mortality was respiratory insufficiency developing within 1 to 2 hours after i.p. administration and within 10 to 20 hours after oral application.

For series [6], the system named is cats. Briefly: Effect on spinal (polysynaptic) flexor reflexes in chloralose anaesthetized cats. It is filed as in vivo. Conditions: Felis catus, iv. From the text:
Res. Comm. 20, S1, 141 (1988)].

Another series concerns CFLP mice. Briefly: Inclined screen test in mice. It is filed as in vivo. Conditions: Mus musculus, ip, read-out: ED50 i.p., inclined screen test. From the text:
In Randall's inclined screen test [J. Pharmacol. Exp. Ther. 129, 163 (1960)] the compounds were applied in 3 i.p. doses to 10 CFLP mice per dose.

Series [7] deals with mice. Description: Protection against methamphetamine-induced dopaminergic neurotoxicity, in mice. The format is in vivo. Particulars: METH 2×20 mg/kg i.p., Example 128 3×5 mg/kg i.p., MK-801 3×2.5 mg/kg i.p.; for (DOPAC + HVA)/DA, % / DA, %: % of saline group; for (DOPAC + HVA)/DA, mean ± SE: striatal dopamine turnover; for DA, μg/g tissue, mean ± SE: striatal dopamine. On the procedure:
High doses of methamphetamine (2×20 mg/kg i.p.) decrease the striatal level of dopamine, which can be prevented by glutamate antagonists, e.g. the NMDA-antagonist MK-801 [Science 243, 398 (1989)].

In series [8] the test system is male CFLP mice. Description: Anticonvulsive effect in mice, bemegride. The format is in vivo. Conditions: Mus musculus, po, read-out: ED50 p.o., Bemegride. Here is the method: as §1
Series [9] concerns male CFLP mice. Description: Anticonvulsive effect in mice, nicotine. The format is in vivo. Conditions: Mus musculus, po. On the procedure: as §1
In series [10] the test system is cats. Description: Effects on spinal root reflex potentials in spinalized and immobilized cats. The format is in vivo. Conditions: for minimal effective dose / ED50: Felis catus; for ED50: iv. Here is the method: The effect of compound of Example 15(16) on the spinal root potentials in cats was tested in spinalized and immobilized animals [Neuropharmacology 21, 161 (1989)].

For series [11], the system named is male CFLP mice. Description: Anticonvulsive effect in mice, strychnine. Particulars: Mus musculus, po, read-out: ED50 p.o., Strychnine. It is filed as in vivo. Here is the method:
as §1

In a further series the test system is NMDA. Description: NMDA induced responses (DC potentials) in rat neocortex slices. It is filed as cell-based.
Series [12] concerns male CFLP mice. Briefly: Anticonvulsive effect in mice, 4-aminopyridine. Conditions: Mus musculus, po, read-out: ED50 p.o., 4-AP (4-aminopyridine). It is filed as in vivo. On the procedure:
as §1

Another series deals with AMPA receptor. Description: Inhibition of quisqualate induced DC potentials in rat neocortex slices. The format is cell-based. Particulars: 2-minute perfusion with 10 μM of quisqualate, corresponding concentrations. On the procedure: The AMPA antagonist effect was tested in rat neocortex slices by using a method similar to that of Harrison and Simmonds [Br. J. Pharmacol. 84, 381 (1985)].

A further series has as its system AMPA receptors. Briefly: Inhibition of synaptic field potentials in rat neocortex slices. It is filed as cell-based. From the text: Similarly as in hippocampal CA1 area, glutamate is the main excitatory transmitter in the neocortex, and dominantly AMPA receptors are involved in mediation of synaptic responses evoked by stimulation of the white matter and recorded from the area adjacent to the site of stimulation [J. Neurophysiol. 64, 1282 (1990)]. The inhibitory effect on such field potentials was studied in rat neocortex slices, maintained in Vitro, according to Fletcher et al. [Br. J. Pharmacol. 95, 585 (1988)].

8 compounds from patent publication US5639751A, “N-acyl-2,3-benzodiazepine derivatives for treating acute and chronic neurodegenerative disorders” (priority 1990, dated 1997) can be followed below.

Read-outs that look alike come from different tables or passages of the source. Bounds are passed on as bounds.

One may read the IC50 as the midpoint of a concentration-inhibition curve. Read a low IC50 as inhibition by little substance. A word on the ED50: it is the dose that gives a 50% effect, or the effect in half of the subjects. What is called LD50 is the dose at which mortality reaches 50%. As to `CNC(=O)N1N=C(c2ccc(N)cc2)c2cc3c(cc2CC1C)OCO3` (single isomer, unassigned; (-)) [Example 123, (-)-1-(4-Aminophenyl)-3-methylcarbamoyl-4-methyl-7,8-methylenedioxy-3,4-dihydro-5H-2,3 benzodiazepine], the IC50 in the series on AMPA/kainate receptors worked out at 3.9 µM; in series [2], 1.7 µM; in series [4] it was 0.5 µM. The ED50 worked out at 13.8 mg/kg in the series on male CFLP mice [1]; 8.4 mg/kg in the series on male CFLP mice [3]; 1.9 mg/kg in the series on mice [5]; 0.05 mg/kg in the series on cats [6]; 8.8 mg/kg with CFLP mice. For the same compound, the LD50 is roughly 50 mg/kg in the series “Acute toxicity in mice” (ip, read-out: LD50 i.p.) and 75 to 100 mg/kg in the series “Acute toxicity in mice” (po, read-out: LD50 p.o.).
Consider `CC(=O)N1N=C(c2ccc(N)cc2)c2cc3c(cc2CC1C)OCO3` (single isomer, unassigned; (-)) [Example 128, (-)-1-(4-Aminophenyl)-3-acetyl-4-methyl-7,8-methylenedioxy-3,4-dihydro-5H-2,3-benzodiazepine], for which the IC50 with AMPA/kainate receptors worked out at 7.8 µM; in [2] it was 1 µM; in [4], 2.7 µM. The ED50 turned out to be 16.8 mg/kg with male CFLP mice [1] (mice, p.o.); 5.3 mg/kg in the series on male CFLP mice [3] (mice, p.o.); 2.3 mg/kg in the series with mice [5] (mice, i.p.); 0.13 mg/kg in the series on cats [6]. For the same compound, the “(DOPAC + HVA)/DA, %” value with mice [7] was 144%. The “DA, %” value in the series with mice [7] came out at 48%. The “(DOPAC + HVA)/DA, mean ± SE” value in the series on mice [7] is given as 0.36 ± 0.10. Besides, the “DA, μg/g tissue, mean ± SE” value in the series with mice [7] was 7.17 ± 1.89 μg/g tissue. The LD50 is 73.5 mg/kg in the series “Acute toxicity in mice” (ip, read-out: LD50 i.p.) and roughly 100 mg/kg in the series “Acute toxicity in mice” (po, read-out: LD50 p.o.).
`N#Cc1cc2[nH]c(=O)c(=O)[nH]c2cc1[N+](=O)[O-]` [CNQX, 1,2,3,4-tetrahydro-7-nitro-2,3-dioxo-quinoxalinecarbonitrile, reference compound] gave an IC50 in the series on AMPA/kainate receptors of 1.4 µM.
Take `CN1C(=O)CN=C(c2ccccc2)c2cc(Cl)ccc21` [Diazepam, 7-chloro-1,3-dihydro-1-methyl-5-phenyl-2H-1,4-benzodiazepin-2-one, reference compound]: the ED50 in the series on male CFLP mice [8] came out at 0.58 mg/kg; with male CFLP mice [9] it was 1.85 mg/kg; in the series with male CFLP mice [1], 0.86 mg/kg; in the series with male CFLP mice [3] it was 18 mg/kg; in the series with male CFLP mice [11] it was 15 mg/kg. Moreover, the “Effect on both dorsal root responses” value in the series on cats [10] is on record as “markedly potentiated”. In addition, the minimal effective dose in the series with cats [10] (read-out: Minimal effective dose, inhibition of polysynaptic reflexes) is less than 0.1 mg/kg; in the series on cats [10] (read-out: Minimal effective doses, potentiation of dorsal root responses), roughly 0.1 mg/kg. The “Maximal inhibition of polysynaptic reflexes” value in the series with cats [10] (partial inhibition) was no more than 50%. Moreover, the “Effect on monosynaptic reflexes” value in the series on cats [10] (up to 3.2 mg/kg) is “did not affect”.
For the compound `CC(=O)N1N=C(c2ccc(N)cc2)c2cc3c(cc2CC1C)OCO3` (stereo not shown) [Example 15 (16), 1-(4-Aminophenyl)-3-acetyl-4-methyl-7,8-methylenedioxy-3,4-dihydro-5H-2,3-benzodiazepine], the ED50 was 16 mg/kg in the series with male CFLP mice [8] (mice, p.o.); 45 mg/kg in the series with male CFLP mice [9]; 46.8 mg/kg with male CFLP mice [1] (mice, p.o.); greater than 1.6 mg/kg in the series with cats [10] (* <20% inhibition at the highest dose applied, read-out: ED50, DRP (dorsal root potential)); greater than 1.6 mg/kg with cats [10] (* <20% inhibition at the highest dose applied, read-out: ED50, DRR (dorsal root reflex)); 0.69 mg/kg with cats [10] (read-out: ED50, MSR (monosynaptic ventral root reflex)). Moreover, the median effective dose (ED50) is 0.77 mg/kg with cats [10] (read-out: ED50, PSR (polysynaptic ventral root reflex)); 12 mg/kg in the series on male CFLP mice [3] (mice, p.o.); 9 mg/kg with male CFLP mice [12] (mice, p.o.); greater than 200 mg/kg with male CFLP mice [11]; 3.7 mg/kg in the series with mice [5] (mice, i.p.); 0.36 mg/kg in the series with cats [6]. In the series on CFLP mice (mice, i.p.), the ED50 amounted to 23.5 mg/kg. For the same compound, the IC50 in the series with AMPA/kainate receptors stood at 24.8 µM; in [2], 3.7 µM; in series [4], 5.1 µM; in the series with AMPA receptors it was 21.5 µM. The “Effect on the responses induced by NMDA” value with NMDA is listed as “failed to affect”. The LD50 worked out at 127 mg/kg in the series “Acute toxicity in mice” (ip, read-out: LD50 i.p.) and 130 mg/kg in the series “Acute toxicity in mice” (po, read-out: LD50 p.o.). Further, the “Activity relative to the reference compound GYKI 52466 in inhibiting the response to quisqualate” value with AMPA receptor is “twice as active”. Besides, the “Inhibition of induced field potentials in % of control” value in the series on AMPA receptors (concentration 10 μM) is given as 30%; in the series with AMPA receptors (concentration 20 μM) it was 47%; with AMPA receptors (concentration 40 μM), 69%; with AMPA receptors (concentration 80 μM) it was 82%.
For the compound `CNC(=O)N1N=C(c2ccc(N)cc2)c2cc3c(cc2CC1C)OCO3` (stereo not shown) [Example 98, 1-(4-Aminophenyl)-3-methylcarbamoyl-4-methyl-7,8-methylenedioxy-3,4-dihydro-5H-2,3-benzodiazepine], the 50% effective dose (ED50) was 11 mg/kg with male CFLP mice [8]; 19 mg/kg in the series with male CFLP mice [9]; 21.3 mg/kg in the series with male CFLP mice [1]; 17.1 mg/kg in the series with male CFLP mice [3]; 13.5 mg/kg with male CFLP mice [12]; 29 mg/kg with male CFLP mice [11]. Also, the ED50 with mice [5] turned out to be 8.6 mg/kg; in the series on cats [6], 0.14 mg/kg; with CFLP mice it was 18 mg/kg. Also, in the series with AMPA/kainate receptors, the half-maximal inhibitory concentration (IC50) worked out at 12.6 µM. The LD50 was determined as 93.1 mg/kg in “Acute toxicity in mice” (ip, read-out: LD50 i.p.) and 96.6 mg/kg in the series “Acute toxicity in mice” (po, read-out: LD50 p.o.).
`C[C@]12N[C@H](Cc3ccccc31)c1ccccc12` [MK-801, (+)-10,11-dihydro-5-methyl-5H-dibenzo[a,d]cyclohepten-5,10-imine (Z)-2-butene-dioate, reference compound]: in the series on mice [7], the “(DOPAC + HVA)/DA, %” value was found to be 132%; the “DA, %” value was 66%; the “(DOPAC + HVA)/DA, mean ± SE” value stood at 0.33 ± 0.06; the “DA, μg/g tissue, mean ± SE” value was 10.01 ± 1.10 μg/g tissue.
On to `NS(=O)(=O)c1cccc2c1c([N+](=O)[O-])cc1[nH]c(=O)c(=O)[nH]c12` [NBQX, 1,2,3,4-tetrahydro-6-nitro-2,3-dioxo-benzo(f)quinoxaline-7-sulfonamide, reference compound], for which, in the series on cats [6], the ED50 worked out at 0.91 mg/kg.
